What was measured:
Experiment in all cases: relative viability (nuclei count vs DMSO), 5 days (fraction); higher = more cells survive
[1] = test system: NCI-H1915
Outline: (§1)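 Relative viability equals treated-well nuclei counts divided by vehicle-well nuclei counts. Counts came from 4× images of lung cancer cell lines grown in 1536-well plates for 5 days after pin-tool dosing on the day after seeding. Dosing used one drug alone or a fixed anchor-drug dose plus five library-drug doses (not always all listed) in √10 steps, and values are medians of duplicate plates.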

[2] = test system: HCC-15
Outline: as §1

[3] = test system: NCI-H1651
Outline: as §1

[4] = test system: HARA
Outline: as §1

[5] = test system: HCC-78
Outline: as §1

[6] = test system: PC-14
Outline: as §1

[7] = test system: NCI-H2347
Outline: as §1

[8] = test system: LC-2-ad
Outline: as §1

[9] = test system: LU99A
Outline: as §1

[10] = test system: NCI-H838
Outline: as §1

[11] = test system: NCI-H2023
Outline: as §1

[12] = test system: SW 1573
Outline: as §1

[13] = test system: NCI-H1355
Outline: as §1

[14] = test system: NCI-H2126
Outline: as §1

[15] = test system: COR-L23
Outline: as §1

[16] = test system: ABC-1
Outline: as §1

[17] = test system: NCI-H2085
Outline: as §1

[18] = test system: EPLC-272H
Outline: as §1

[19] = test system: NCI-H1993
Outline: as §1

[20] = test system: NCI-H650
Outline: as §1

[21] = test system: NCI-H358
Outline: as §1

[22] = test system: UMC-11
Outline: as §1

O=C(O)c1ccc(-c2c[nH]c3ncc(-c4ccccc4)cc23)cc1C1CCCC1 + CS(=O)(=O)N1CCN(Cc2cc3nc(-c4cccc5[nH]ncc45)nc(N4CCOCC4)c3s2)CC1 [Pictilisib] (partner 1 µM)
relative viability ([1]; first compound 0.04 µM): 0.992 | relative viability ([1]; first compound 0.1265 µM): 0.876 | relative viability ([1]; first compound 0.4 µM): 0.94 | relative viability ([1]; first compound 1.265 µM): 0.803 | relative viability ([2]; first compound 0.04 µM): 0.736 | relative viability ([2]; first compound 0.1265 µM): 0.839 | relative viability ([2]; first compound 0.4 µM): 0.755 | relative viability ([2]; first compound 1.265 µM): 0.514 | relative viability ([3]; first compound 0.04 µM): 0.557 | relative viability ([3]; first compound 0.1265 µM): 0.641 | relative viability ([3]; first compound 0.4 µM): 0.451 | relative viability ([3]; first compound 1.265 µM): 0.455 | relative viability ([4]; first compound 0.04 µM): 0.31 | relative viability ([4]; first compound 0.1265 µM): 0.604 | relative viability ([4]; first compound 0.4 µM): 0.449 | relative viability ([4]; first compound 1.265 µM): 0.545 | relative viability ([5]; first compound 0.04 µM): 0.231 | relative viability ([5]; first compound 0.1265 µM): 0.263 | relative viability ([5]; first compound 0.4 µM): 0.179 | relative viability ([5]; first compound 1.265 µM): 0.168 | relative viability ([6]; first compound 0.04 µM): 0.765 | relative viability ([6]; first compound 0.1265 µM): 0.947 | relative viability ([6]; first compound 0.4 µM): 0.713 | relative viability ([6]; first compound 1.265 µM): 0.801 | relative viability ([7]; first compound 0.04 µM): 0.622 | relative viability ([7]; first compound 0.1265 µM): 0.789 | relative viability ([7]; first compound 0.4 µM): 0.621 | relative viability ([7]; first compound 1.265 µM): 0.75 | relative viability ([8]; first compound 0.04 µM): 0.48 | relative viability ([8]; first compound 0.1265 µM): 0.46 | relative viability ([8]; first compound 0.4 µM): 0.462 | relative viability ([8]; first compound 1.265 µM): 0.351 | relative viability ([9]; first compound 0.04 µM): 0.321 | relative viability ([9]; first compound 0.1265 µM): 0.315 | relative viability ([9]; first compound 0.4 µM): 0.308 | relative viability ([9]; first compound 1.265 µM): 0.278 | relative viability ([10]; first compound 0.04 µM): 0.423 | relative viability ([10]; first compound 0.1265 µM): 0.57 | relative viability ([10]; first compound 0.4 µM): 0.506 | relative viability ([10]; first compound 1.265 µM): 0.447 | relative viability ([11]; first compound 0.04 µM): 0.249 | relative viability ([11]; first compound 0.1265 µM): 0.302 | relative viability ([11]; first compound 0.4 µM): 0.228 | relative viability ([11]; first compound 1.265 µM): 0.224 | relative viability ([12]; first compound 0.04 µM): 0.638 | relative viability ([12]; first compound 0.1265 µM): 0.621 | relative viability ([12]; first compound 0.4 µM): 0.512 | relative viability ([12]; first compound 1.265 µM): 0.317 | relative viability ([13]; first compound 0.04 µM): 0.481 | relative viability ([13]; first compound 0.1265 µM): 0.514 | relative viability ([13]; first compound 0.4 µM): 0.4 | relative viability ([13]; first compound 1.265 µM): 0.35 | relative viability ([14]; first compound 0.04 µM): 0.551 | relative viability ([14]; first compound 0.1265 µM): 0.486 | relative viability ([14]; first compound 0.4 µM): 0.497 | relative viability ([14]; first compound 1.265 µM): 0.46 | relative viability ([15]; first compound 0.04 µM): 0.775 | relative viability ([15]; first compound 0.1265 µM): 0.9 | relative viability ([15]; first compound 0.4 µM): 0.798 | relative viability ([15]; first compound 1.265 µM): 0.425 | relative viability ([16]; first compound 0.04 µM): 0.673 | relative viability ([16]; first compound 0.1265 µM): 0.596 | relative viability ([16]; first compound 0.4 µM): 0.689 | relative viability ([16]; first compound 1.265 µM): 0.757 | relative viability ([17]; first compound 0.04 µM): 0.431 | relative viability ([17]; first compound 0.1265 µM): 0.427 | relative viability ([17]; first compound 0.4 µM): 0.536 | relative viability ([17]; first compound 1.265 µM): 0.568 | relative viability ([18]; first compound 0.04 µM): 0.381 | relative viability ([18]; first compound 0.1265 µM): 0.318 | relative viability ([18]; first compound 0.4 µM): 0.266 | relative viability ([18]; first compound 1.265 µM): 0.342 | relative viability ([19]; first compound 0.04 µM): 0.823 | relative viability ([19]; first compound 0.4 µM): 0.742 | relative viability ([19]; first compound 1.265 µM): 0.789 | relative viability ([20]; first compound 0.04 µM): 0.993 | relative viability ([20]; first compound 0.1265 µM): 0.889 | relative viability ([20]; first compound 0.4 µM): 0.701 | relative viability ([20]; first compound 1.265 µM): 0.681 | relative viability ([21]; first compound 0.04 µM): 0.39 | relative viability ([21]; first compound 0.1265 µM): 0.364 | relative viability ([21]; first compound 0.4 µM): 0.371 | relative viability ([21]; first compound 1.265 µM): 0.255 | relative viability ([22]; first compound 0.04 µM): 0.827 | relative viability ([22]; first compound 0.1265 µM): 0.937 | relative viability ([22]; first compound 0.4 µM): 0.853 | relative viability ([22]; first compound 1.265 µM): 0.775
